Molecules are shown by their SMILES.

The source of these data is EP4635944A1, “2-AZABICYCLO[3.1.1]HEPTANE COMPOUND” (Daiichi Sankyo Company, Limited, priority 2022, dated 2024).

A short description of data set [1]: Evaluation of metabolic stability in human liver microsomes. The format is in vitro ADME. The settings on record: for Human metabolic stability Residual ratio (%): test compound 1 µM, human liver microsomes 0.5 mg/mL, 30 minutes at 37°C; for metabolic stability compared to the corresponding compounds that were not deuterated: human liver microsomes, 30 minutes, deuterated at specific positions. Here is the method: Evaluation of metabolic stability of OX2R agonist
The test compound (final concentration was 1 µM, dissolved in DMSO/acetonitrile = 1/99), pooled human liver microsomes (final concentration was 0.5 mg/mL), and sodium phosphate buffer (pH 7.4, final concentration was 100 mM) were admixed and preincubated at 37°C for 15 minutes. Thereafter, a mixed solution of glucose-6-phosphate (final concentration was 10 mM), glucose-6-phosphate dehydrogenase (final concentration was 1 U/mL), and magnesium chloride (final concentration was 3.3 mM) was added and a certain amount of the mixture was collected. Then, an acetonitrile/methanol mixed solution (75/25, v/v) containing a 4.5-fold volume of internal standard substances (final concentrations: phenacetin: 1 ng/mL, niflumic acid: 15 ng/mL, furosemide: 20 ng/mL) was added to stop the reaction (0 min sample). Subsequently, β-nicotinamide adenine dinucleotide phosphate (final concentration was 1 mM) was added, and after 30 minutes of incubation at 37°C, a certain amount of the mixture was collected, to which an acetonitrile/methanol mixed solution (75/25, v/v) containing a 4.5-fold volume of the internal standard substances was added to stop the reaction (30 min sample). For both samples, a portion of the supernatant after centrifugation (about 1200 × g, 4°C, 15 minutes) was injected into a liquid chromatograph tandem quadrupole mass spectrometer (LC-MS/MS) for analysis. The metabolic stability was evaluated by comparing the test compound/internal standard substance ratio of the 30 min sample with the 0 min sample and calculating the residual ratio of the test compound. […]
Background: Liver microsomes are a subcellular fraction often used to study metabolism.

Data set [2] concerns the target T1, human OX2R (Homo sapiens, UniProt O43614).
T1 construct: host or cells: CHO-K1 (Chinese Hamster Ovary K1)
T1 sequence (O43614 1-444): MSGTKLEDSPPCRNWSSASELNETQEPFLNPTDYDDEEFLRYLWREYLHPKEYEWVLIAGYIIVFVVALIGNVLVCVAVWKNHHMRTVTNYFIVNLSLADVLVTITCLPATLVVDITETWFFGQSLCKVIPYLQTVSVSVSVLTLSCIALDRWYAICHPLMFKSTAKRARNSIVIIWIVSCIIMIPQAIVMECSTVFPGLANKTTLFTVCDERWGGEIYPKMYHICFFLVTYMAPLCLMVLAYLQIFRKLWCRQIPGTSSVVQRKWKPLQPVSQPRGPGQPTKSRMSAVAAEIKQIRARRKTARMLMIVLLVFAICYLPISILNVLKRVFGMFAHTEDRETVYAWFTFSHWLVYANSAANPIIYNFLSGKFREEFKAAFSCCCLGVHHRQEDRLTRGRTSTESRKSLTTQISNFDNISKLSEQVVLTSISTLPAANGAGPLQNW
Put plainly: Evaluation of OX2R agonist activity (intracellular calcium, CHO-K1 cells with forced expression of human OX2R). The format is cell-based. The settings on record: CHO-K1 cells expressing human OX2R; 100% = 5 µM of the reference compound; read-out: hOX2R EC50. In outline: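 Cells seeded 7500/well, cultured 24 h, loaded with Fluo 4-AM (2.5 µg/mL final) plus probenecid for 30 min. Calcium response read as 480/540 nm excitation ratio; max–min signal 5–7 s after compound addition, normalized to buffer (0%) and 5 µM reference agonist (100%). EC50 from concentration series; 0.5% DMSO final.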

On to `C[C@@H](O)C(=O)N1C2CC(C2)[C@H](NS(C)(=O)=O)[C@@H]1Cc1cccc(-c2ccccc2)c1F` [Example 25, N-{(3S,4S)-3-[(2-Fluoro[biphenyl]-3-yl)methyl]-2-[(2R)-2-hydroxypropanoyl]-2-azabicyclo[3.1.1]heptan-4-yl}methanesulfonamide], for which the “Human metabolic stability Residual ratio (%)” value in data set [1] stood at 34%. Further, the concentration for a half-maximal effect (EC50) (usually the concentration at which the effect is half-maximal) in data set [2] was found to be 24 nM.
Consider `[2H][C@](C)(O)C(=O)N1C2CC(F)(C2)[C@H](NS(C)(=O)=O)[C@@H]1Cc1cc(F)cc(-c2ccccc2)c1F` [Example 100, N-{(3S,4R)-3-[(2,5-Difluoro[biphenyl]-3-yl)methyl]-5-fluoro-2-[(2R)-2-hydroxy(2-^2H)propanoyl]-2-azabicyclo[3.1.1]heptan-4-yl}methanesulfonamide], for which, in data set [1], the “metabolic stability compared to the corresponding compounds that were not deuterated” value was “improved metabolic stability” and the “Human metabolic stability Residual ratio (%)” value was found to be 70%. In data set [2], the EC50 is 43 nM.
Taken in the same sequence, the figures for `[2H][C@](C)(O)C(=O)N1C2CC(F)(C2)[C@H](NS(C)(=O)=O)[C@@H]1Cc1cccc(-c2ccccc2)c1F` [Example 99, N-{(3S,4R)-5-Fluoro-3-[(2-fluoro[biphenyl]-3-yl)methyl]-2-[(2R)-2-hydroxy(2-^2H)propanoyl]-2-azabicyclo[3.1.1]heptan-4-yl}methanesulfonamide] were “improved metabolic stability”, 78% and 27 nM.
Take `CCS(=O)(=O)NC1C(Cc2cc(F)cc(-c3ccccc3)c2F)N(C(=O)[C@@H](C)O)C2CC1(F)C2` (single isomer, unassigned) [Example 91]: the “Human metabolic stability Residual ratio (%)” value in data set [1] is 25%. Moreover, the EC50 in data set [2] came to 39 nM.
With `C[C@@H](O)C(=O)N1C2CC(F)(C2)[C@H](NS(C)(=O)=O)[C@@H]1Cc1cccc(-c2ccccc2)c1F` [Example 53, N-{(3S,4R)-5-Fluoro-3-[(2-fluoro[biphenyl]-3-yl)methyl]-2-[(2R)-2-hydroxypropanoyl]-2-azabicyclo[3.1.1]heptan-4-yl}methanesulfonamide], the “Human metabolic stability Residual ratio (%)” value in data set [1] turned out to be 49%. Further, the EC50 in data set [2] turned out to be 19 nM.
In the case of `CS(=O)(=O)N[C@@H]1[C@H](Cc2cccc(-c3ccccc3)c2F)N(C(=O)[C@@H]2C[C@@H]2F)C2CC1(F)C2` [Example 66, N-[(3S,4R)-5-Fluoro-3-[(2-fluoro[biphenyl]-3-yl)methyl]-2-{[(1S,2S)-2-fluorocyclopropyl]carbonyl}-2-azabicyclo[3.1.1]heptan-4-yl]methanesulfonamide], the concentration for a half-maximal effect (EC50) in data set [2] worked out at 57 nM.
As for `[2H]C([2H])([2H])C([2H])(O)C(=O)N1C2CC(F)(C2)C(NS(=O)(=O)CC)C1Cc1cc(F)cc(-c2ccccc2)c1F` (single isomer, unassigned) [Example 95, N-{3-[(2,5-Difluoro[biphenyl]-3-yl)methyl]-5-fluoro-2-[2-hydroxy(^2H4)propanoyl]-2-azabicyclo[3.1.1]heptan-4-yl}ethanesulfonamide], in data set [1], the “metabolic stability compared to the corresponding compounds that were not deuterated” value is listed as “improved metabolic stability” and the “Human metabolic stability Residual ratio (%)” value came out at 52%. Besides, in data set [2], the EC50 is 19 nM.
Regarding `CCS(=O)(=O)NC1C2CC(C2)N(C(=O)N2CCC2)C1Cc1cccc(-c2cc(F)cc(F)c2)c1F` (single isomer, unassigned) [Example 9, N-{2-(Azetidin-1-ylcarbonyl)-3-[(2,3',5'-trifluoro[biphenyl]-3-yl)methyl]-2-azabicyclo[3.1.1]heptan-4-yl}ethanesulfonamide], the EC50 in data set [2] stood at 89 nM.
Still for that read-out and setting: the result for `CC(C)(O)C(=O)N1C2CC(C2)[C@H](NS(C)(=O)=O)[C@@H]1Cc1cccc(-c2cc(F)cc(C(F)F)c2)c1F` [Example 51, N-[(3S,4S)-3-{[3'-(Difluoromethyl)-2,5'-difluoro[biphenyl]-3-yl]methyl}-2-(2-hydroxy-2-methylpropanoyl)-2-azabicyclo[3.1.1]heptan-4-yl]methanesulfonamide] reads 33 nM.
For `CC(C)(O)C(=O)N1C2CC(C2)[C@H](NS(C)(=O)=O)[C@@H]1Cc1cccc(-c2cccc(C(F)(F)F)c2)c1F` [Example 18, N-[(3S,4S)-3-{[2-Fluoro-3'-(trifluoromethyl)[biphenyl]-3-yl]methyl}-2-(2-hydroxy-2-methylpropanoyl)-2-azabicyclo[3.1.1]heptan-4-yl]methanesulfonamide], the concentration for a half-maximal effect (EC50) in data set [2] came out at 784 nM.
On the same count and under the same terms, for `[2H]c1c([2H])c([2H])c(-c2cccc(C[C@H]3[C@@H](NS(C)(=O)=O)C4CC(C4)N3C(=O)[C@@H](C)O)c2F)c([2H])c1[2H]` [Example 54, N-{(3S,4S)-3-{[2-Fluoro(2',3',4',5',6'-^2H5)[biphenyl]-3-yl]methyl}-2-[(2R)-2-hydroxypropanoyl]-2-azabicyclo[3.1.1]heptan-4-yl}methanesulfonamide] the value was 22 nM; for `C[C@@H](O)C(=O)N1C2CC(C2)[C@H](NS(C)(=O)=O)[C@@H]1Cc1cccc(-c2cc(F)cc(F)c2)c1F` [Example 16, N-{(3S,4S)-2-[(2R)-2-Hydroxypropanoyl]-3-[(2,3',5'-trifluoro[biphenyl]-3-yl)methyl]-2-azabicyclo[3.1.1]heptan-4-yl}methanesulfonamide], 11 nM.
The same measure, in the same setting: the result for `CC(C)(O)C(=O)N1C2CC(C2)C(NS(=O)(=O)CF)C1Cc1cccc(-c2cc(F)cc(F)c2)c1F` (single isomer, unassigned) [Example 6, 1-Fluoro-N-{2-(2-hydroxy-2-methylpropanoyl)-3-[(2,3',5'-trifluoro[biphenyl]-3-yl)methyl]-2-azabicyclo[3.1.1]heptan-4-yl}methanesulfonamide] reads 69 nM; that for `CC(C)NC(=O)N1C2CC(C2)[C@H](NS(C)(=O)=O)[C@@H]1Cc1cccc(-c2cc(F)cc(F)c2)c1F` [Example 35, (3S,4S)-4-[(Methylsulfonyl)amino]-N-(propan-2-yl)-3-[(2,3',5'-trifluoro[biphenyl]-3-yl)methyl]-2-azabicyclo[3.1.1]heptane-2-carboxamide], 75 nM.
On the same count and under the same terms, the result for `C[C@H](O)C(=O)N1C2CC(C2)[C@H](NS(C)(=O)=O)[C@@H]1Cc1cccc(-c2cc(F)cc(F)c2)c1F` [Example 15, N-{(3S,4S)-2-[(2S)-2-Hydroxypropanoyl]-3-[(2,3',5'-trifluoro[biphenyl]-3-yl)methyl]-2-azabicyclo[3.1.1]heptan-4-yl}methanesulfonamide] reads 303 nM; that for `CS(=O)(=O)NC1C2CC(C2)N(C(=O)C2CC2)C1Cc1ccnc(-c2cc(F)cc(F)c2)c1F` (single isomer, unassigned) [Example 22, N-[2-(Cyclopropylcarbonyl)-3-{[2-(3,5-difluorophenyl)-3-fluoropyridin-4-yl]methyl}-2-azabicyclo[3.1.1]heptan-4-yl]methanesulfonamide], 80 nM.
Consider `CC(C)(O)C(=O)N1C2CC(C2)[C@H](NS(C)(=O)=O)[C@@H]1Cc1cccc(-c2cc(F)cc(F)c2)c1F` (single isomer, unassigned) [Example 1], for which the half-maximal effective concentration (EC50) in data set [2] came out at 67 nM.
On to `C[C@@H](O)C(=O)N1C2CC(C2)[C@H](NS(C)(=O)=O)[C@@H]1Cc1cccc(-c2cccc(F)c2)c1F` [Example 40, N-{(3S,4S)-3-[(2,3'-Difluoro[biphenyl]-3-yl)methyl]-2-[(2R)-2-hydroxypropanoyl]-2-azabicyclo[3.1.1]heptan-4-yl}methanesulfonamide], for which the EC50 in data set [2] was determined as 49 nM.
On the same count and under the same terms, for `CC(C)C(=O)N1C2CC(C2)[C@H](NS(C)(=O)=O)[C@@H]1Cc1cccc(-c2ccccc2)c1F` [Example 57, N-[(3S,4S)-3-[(2-Fluoro[biphenyl]-3-yl)methyl]-2-(2-methylpropanoyl)-2-azabicyclo[3.1.1]heptan-4-yl]methanesulfonamide] the value was 38 nM; for `C[C@@H](O)C(=O)N1C2CC(C2)[C@H](NS(C)(=O)=O)[C@@H]1Cc1cccc(-c2cccc(C(F)F)c2)c1F` [Example 24, N-{(3S,4S)-3-{[3'-(Difluoromethyl)-2-fluoro[biphenyl]-3-yl]methyl}-2-[(2R)-2-hydroxypropanoyl]-2-azabicyclo[3.1.1]heptan-4-yl}methanesulfonamide], 15 nM.
